Measurements as given in ChEMBL document CHEMBL1201862, “PubChem BioAssay data set” (2004).
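Following 48 hours of exposure in 96-well plates, responses at five concentrations were used to interpolate endpoints linearly. Abbreviation: GI50, concentration required for 50% inhibition of growth.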 The source made the active and inactive calls. Rule as the data show it: active = GI50 up to about 1.1 µM and inactive = higher.

Tests used:
Assay in all cases: growth of human tumour cells (NCI), 48 h
786-0 = test system: 786-0
A498 = test system: A498
A549 = test system: A549
ACHN = test system: ACHN
CAKI-1 = test system: CAKI-1
CCRF-CEM = test system: CCRF-CEM
COLO 205 = test system: COLO 205
DU-145 = test system: DU-145
EKVX = test system: EKVX
HCC 2998 = test system: HCC 2998
HCT-116 = test system: HCT-116
HCT-15 = test system: HCT-15
HL-60 = test system: HL-60
HOP-62 = test system: HOP-62
HOP-92 = test system: HOP-92
HT-29 = test system: HT-29
Hs-578T = test system: Hs-578T
IGROV-1 = test system: IGROV-1
K562 = test system: K562
KM12 = test system: KM12
LOX IMVI = test system: LOX IMVI
M14 = test system: M14
MCF7 = test system: MCF7
MDA-MB-231 = test system: MDA-MB-231
MDA-MB-435 = test system: MDA-MB-435
MDA-N = test system: MDA-N
MOLT-4 = test system: MOLT-4
Malme-3M = test system: Malme-3M
NCI-H226 = test system: NCI-H226
NCI-H23 = test system: NCI-H23
NCI-H460 = test system: NCI-H460
NCI-H522 = test system: NCI-H522
NCI/ADR-RES = test system: NCI/ADR-RES
OVCAR-3 = test system: OVCAR-3
OVCAR-4 = test system: OVCAR-4
OVCAR-5 = test system: OVCAR-5
OVCAR-8 = test system: OVCAR-8
PC-3 = test system: PC-3
RPMI-8226 = test system: RPMI-8226
RXF 393 = test system: RXF 393
SF-268 = test system: SF-268
SF-295 = test system: SF-295
SF-539 = test system: SF-539
SK-MEL-28 = test system: SK-MEL-28
SK-MEL-2 = test system: SK-MEL-2
SK-MEL-5 = test system: SK-MEL-5
SK-OV-3 = test system: SK-OV-3
SN12C = test system: SN12C
SNB-19 = test system: SNB-19
SNB-75 = test system: SNB-75
SR = test system: SR
SW-620 = test system: SW-620
T47D = test system: T47D
TK-10 = test system: TK-10
U-251 = test system: U-251
UACC-257 = test system: UACC-257
UACC-62 = test system: UACC-62
UO-31 = test system: UO-31

For `NC(=O)ON=C1CCN(Cc2ccccc2)CC1`, the GI50 (786-0) was > 100 µM (inactive), the GI50 (A498) was > 100 µM (inactive) and the GI50 (A549) was > 100 µM (inactive). For the same compound, the GI50 (ACHN) was > 100 µM (inactive), the GI50 (CAKI-1) was > 100 µM (inactive) and the GI50 (CCRF-CEM) was > 100 µM (inactive). For the same compound, the GI50 (COLO 205) was > 100 µM (inactive), the GI50 (DU-145) was > 100 µM (inactive) and the GI50 (EKVX) was > 100 µM (inactive). The GI50 (HCC 2998) was > 100 µM (inactive), the GI50 (HCT-116) was > 100 µM (inactive) and the GI50 (HCT-15) was > 100 µM. For the same compound, the GI50 (HL-60) was > 100 µM (inactive), the GI50 (HOP-62) was > 100 µM (inactive) and the GI50 (HOP-92) was > 100 µM (inactive). The GI50 (HT-29) was > 100 µM (inactive), the GI50 (Hs-578T) was > 100 µM (inactive) and the GI50 (IGROV-1) was > 100 µM (inactive). For the same compound, the GI50 (K562) was > 100 µM (inactive), the GI50 (KM12) was > 100 µM (inactive) and the GI50 (LOX IMVI) was > 100 µM (inactive). The GI50 (M14) was > 100 µM (inactive), the GI50 (MCF7) was > 100 µM (inactive) and the GI50 (MDA-MB-231) was > 100 µM (inactive). For the same compound, the GI50 (MDA-MB-435) was > 100 µM (inactive), the GI50 (MDA-N) was > 100 µM (inactive) and the GI50 (MOLT-4) was > 100 µM (inactive). The GI50 (Malme-3M) was > 100 µM (inactive), the GI50 (NCI-H226) was > 100 µM (inactive) and the GI50 (NCI-H23) was > 100 µM (inactive). The GI50 (NCI-H460) was > 100 µM (inactive), the GI50 (NCI-H522) was > 100 µM (inactive) and the GI50 (NCI/ADR-RES) was > 100 µM (inactive). For the same compound, the GI50 (OVCAR-3) was > 100 µM (inactive), the GI50 (OVCAR-4) was > 100 µM (inactive) and the GI50 (OVCAR-5) was > 100 µM (inactive). The GI50 (OVCAR-8) was > 100 µM (inactive), the GI50 (PC-3) was > 100 µM (inactive) and the GI50 (RPMI-8226) was > 100 µM (inactive). The GI50 (RXF 393) was > 100 µM (inactive), the GI50 (SF-268) was > 100 µM (inactive) and the GI50 (SF-295) was > 100 µM (inactive). The GI50 (SF-539) was > 100 µM (inactive), the GI50 (SK-MEL-28) was > 100 µM (inactive) and the GI50 (SK-MEL-2) was > 100 µM (inactive). For the same compound, the GI50 (SK-MEL-5) was > 100 µM (inactive), the GI50 (SK-OV-3) was > 100 µM (inactive) and the GI50 (SN12C) was > 100 µM (inactive). For the same compound, the GI50 (SNB-19) was > 100 µM (inactive), the GI50 (SNB-75) was 74.8 µM (inactive) and the GI50 (SR) was > 100 µM (inactive). For the same compound, the GI50 (SW-620) was > 100 µM (inactive), the GI50 (T47D) was > 100 µM (inactive) and the GI50 (TK-10) was 29.9 µM (inactive). The GI50 (U-251) was > 100 µM (inactive), the GI50 (UACC-257) was > 100 µM (inactive) and the GI50 (UACC-62) was > 100 µM (inactive). The GI50 (UO-31) was > 100 µM (inactive).
